In patent US20220339176A1, “Methods of Treatments to Prolong Gestation and Complications of Menstruation or Gestation” (priority 2019, published 2022):
“Also recorded” adds a separate entry of the source. Structures can show the parent of a compound that is named as a salt.

Columns and labels:
[1] = tested on: uterine muscle strips from pregnant WT mice; experiment: myography of uterine muscle strips, oxytocin dose-response; parameters: species or system mouse; conditions: D18 strips
Experimental: (§1) Uterine muscle strips were extracted from pregnant mice and were assessed for contractibility via myography. Timed-pregnant wild-type C57/B6 mice were euthanized before making a vertical midline abdominal incision and removing each of the two uterine horns. Uterine horns were subsequently cut into 3-mm×7-mm segments and placed in a modified Krebs buffer (118 mM NaCl, […], 1.2 mM MgSO4, 1.2 mM KH2PO4, 2.5 mM CaCl2), 25 mM NaHCO3, and 11 mM glucose, pH 7.4). Muscle segments were vertically suspended on custom-made stainless steel hooks inside an organ bath filled with modified Krebs buffer, maintained at 37° C., and aerated with gas containing 95% O2 and 5% CO2. The strips were allowed to equilibrate at 1.5 g of tension for 45 min.
For the oxytocin dose-response experiments, the strips were then stimulated with oxytocin at concentrations ranging from 1 to 1000 nM, and the pattern of contraction in response to each dose was recorded for 9 min. The muscle strips were washed with Krebs solution twice and allowed to equilibrate for 3 min before the next stimulation. In separate experiments, strips were treated with the compounds before assessing the dose response to oxytocin. Contraction tracings were recorded using PowerLab and LabChart (ADInstruments).
Provided in FIGS. 5B and 5C are results of a myography experiment measuring spontaneous contractions induced by oxytocin. Myography of uterine muscle strips from pregnant WT mice at D18 was performed while incubating the strips with increasing doses of oxytocin in the presence of 1 μM Androstane-3,17-diol (black squares) or vehicle (black circles), n=4 to 7. The results are provided as old increase in area under the curve AUC (FIG. 5B), and amplitude (FIG. 5C) from baseline spontaneous contractions with vehicle and Androstane-3,17-diol. […]

[2] = tested on: human uterine smooth muscle cells; experiment: collagen gel contraction assay; type: cell-based
Pregnant C57BL/6 mice [3] = experiment: mouse model of moderate preterm birth (2 mg/kg LPS); type: in vivo; conditions: for gestation in vivo: 2 mg/kg LPS on D15, compounds intraperitoneal every 8 hours beginning 8 hours after LPS
Experimental: Provided in FIGS. 6A and 6B are an experimental schematic and results of compound treatment in mouse models of moderate preterm birth. Pregnant C57BL/6 mice were intraperitoneally administered 2 mg/kg LPS (Escherichia coli 0127:B8, chromatographically pure, Sigma-Aldrich) or PBS (as control) on D15. Mice were then treated with either intraperitoneal injections of vehicle (100 μl, 30% DMSO in pharmaceutical sesame oil), DHEA-S(first two doses at 0.8 mg/mouse, later doses at 0.4 mg/mouse, 100 μl), THDOC (first two doses at 0.8 mg/mouse, later doses at 0.4 mg/mouse, 100 μl), estriol-16-glucuronide (first two doses at 0.8 mg/mouse, later doses at 0.4 mg/mouse, 100 μl), androstane-3,17-diol (1.5 mg/mouse, 100 μl), Androstane-3,17-diol+progesterone (each at 0.75 mg/mouse, 100 μl), or DHEA-S+androstane-3,17-diol+progesterone (androstane-3,17-diol and progesterone each at 0.75 mg/mouse, DHEA-S at 0.27 mg/mouse for the first two doses and then 0.13 mg/mouse for the later does, 100 μl). Compound groups received the compounds via intraperitoneal injections every 8 hours, beginning 8 hours after LPS administration, up to 4 doses, and then after 12 hours before delivery.

Pregnant C57BL/6 mice [4] = experiment: mouse model of severe preterm birth (3 mg/kg LPS); type: in vivo; conditions: 3 mg/kg LPS on D15
Experimental: Provided in FIG. 7 is an experimental schematic of compound treatment in mouse models of severe preterm birth. In separate experiments, pregnant C57BL/6 mice were intraperitoneally administered 3 mg/kg LPS (Escherichia coli 0127:B8, chromatographically pure, Sigma-Aldrich) or PBS (as control) on D15. Treated mice were then treated with either intraperitoneal injections of vehicle (200 μl, 15% DMSO in pharmaceutical sesame oil) or androstane-3,17-diol (1.5 mg/mouse, 200 μl) every 12 hours, up to 5 doses before delivery.
(§2) Provided in FIGS. 8A and 8B are an experimental schematic and results of tocolytic compound treatment in mouse models of severe preterm birth. In separate experiments, pregnant C57BL/6 mice were intraperitoneally administered 3 mg/kg LPS (Escherichia coli 0127:B8, chromatographically pure, Sigma-Aldrich) or PBS (as control) on D15. Treated mice were then treated with either intraperitoneal injections of vehicle or androstane-3,17-diol (1.5 mg/mouse). The androstane-3,17-diol group received […] via intraperitoneal injections every 24 hours, up to 3 days before delivery. One-third (33%) of LPS-induced preterm mice treated with androstane-3,17-diol reached full term.

[5] = tested on: uterine muscle strips from pregnant WT mice; experiment: myography of uterine muscle strips, spontaneous contraction; parameters: species or system mouse
Experimental: as §1
Provided in FIG. 5A are results of a myography experiment measuring spontaneous contraction. Myography of uterine muscle strips from pregnant WT mice at D18 was performed while incubating the strips with oxytocin (OXY), Vehicle, 0.25 μM μM of DHEA-S, 1 μM of THDOC, 1 μM of estriol-16-glucuronide, or 1 μM of androstane-3,17-diol. The area under the curve was calculated for the final 180 s of each 9-min contraction tracing using GraphPad Prism (GraphPad Prism for Macintosh version 5.0; GraphPad Software). The area under the curve for each response was then normalized to the area under the curve of the baseline.
Provided in FIG. 5E are myography tracings recorded with various compound applications: 10 μM progesterone, 1 μM Androstane-3,17-diol, 0.5 μM Androstane-3,17-diol+5 μM progesterone, and 0.33 μM Androstane-3,17-diol+0.33 μM THDOC+3.3 μM progesterone. Left of the arrow is baseline contraction and to the right of the arrow indicates when the compounds were applied. […] Note that there was no obvious effect when treating the muscle with 1 μM progesterone (data not shown).

Pregnant C57BL/6 mice [6] = experiment: treatment of healthy control mice (no LPS administration); type: in vivo; conditions: 1.5 mg/mouse intraperitoneal every 24 hours
Experimental: as §2

[7] = 2 mg/kg LPS on D15, compounds intraperitoneal

Structure (SMILES): C[C@]12CC[C@@H](O)C[C@@H]1CC[C@@H]1[C@@H]2CC[C@]2(C)[C@@H](O)CC[C@@H]12 (stereo in doubt) [androstane-3,17-diol]
- effect on oxytocin-induced uterine contractility (AUC and amplitude from baseline) ([1]; increasing doses of oxytocin, 1 μM Androstane-3,17-diol): reduced; also recorded: inhibits uterine muscle contraction with oxytocin stimulation
- ability to mitigate collagen retraction (gel surface area relative to no cell control) ([2]; oxytocin 100 nM, 18 hours, 2.5 μM DHEA-S, 10 μM THDOC, 10 μM estriol-16-glucuronide, 10 μM androstane-3,17-diol, 2 mM progesterone): provided the best results
- birth outcome of preterm model females (Pregnant C57BL/6 mice [3]; [7]): Full-term live pups were birthed
- comparison of gestation results between treatment groups (Pregnant C57BL/6 mice [3]; [7]): most significant results
- gestation in vivo (Pregnant C57BL/6 mice [3]): prolonged gestation in vivo
- mice that reached full-term (Pregnant C57BL/6 mice [4]; 1.5 mg/mouse intraperitoneal every 12 hours, up to 5 doses): 1/3
- appearance of mom and pups (Pregnant C57BL/6 mice [4]; 1.5 mg/mouse intraperitoneal every 12 hours, the mouse that reached full-term): both mom and pups looked healthy
- LPS-induced preterm mice that reached full term (Pregnant C57BL/6 mice [4]; 1.5 mg/mouse intraperitoneal every 24 hours, up to 3 days): 33%
- muscle contractility in myography tracings ([5]; 1 μM Androstane-3,17-diol): rapid inhibition of the muscle contraction
- suppression of uterine contractility (area under the curve normalized to baseline) ([5]; D18 strips, 0.25 μM DHEA-S, 1 μM THDOC, 1 μM estriol-16-glucuronide, 1 μM androstane-3,17-diol): most significant inhibition effect
- gestation period (Pregnant C57BL/6 mice [6]): increased gestation period beyond the typical date of delivery

Structure (SMILES): C[C@]12CC[C@H](OS(=O)(=O)O)CC1=CC[C@@H]1[C@@H]2CC[C@]2(C)C(=O)CC[C@@H]12 [DHEA-S, dehydroisoandrosterone sulfate]
- birth outcome of preterm model females (Pregnant C57BL/6 mice [3]; [7]): Full-term live pups were birthed
- gestation in vivo (Pregnant C57BL/6 mice [3]): prolonged gestation in vivo

Structure (SMILES): CC[C@H](C)[C@@H]1NC(=O)[C@H](Cc2ccc(O)cc2)NC(=O)[C@@H](N)CSSC[C@@H](C(=O)N2CCC[C@H]2C(=O)N[C@@H](CC(C)C)C(=O)NCC(N)=O)NC(=O)[C@H](CC(N)=O)NC(=O)[C@H](CCC(N)=O)NC1=O [Oxytocin, oxytocin, reference compound]
- uterine contractility (AUC, amplitude) ([1]; oxytocin 1 to 1000 nM, vehicle): induced a dose-dependent increase in uterine contractility

Structure (SMILES): C[C@]12CC[C@@H](O)C[C@H]1CC[C@@H]1[C@@H]2CC[C@]2(C)[C@@H](C(=O)CO)CC[C@@H]12 [THDOC, tetrahydrodeoxycorticosterone]
- gestation in vivo (Pregnant C57BL/6 mice [3]): prolonged gestation in vivo

Structure (SMILES): CC(=O)[C@H]1CC[C@H]2[C@@H]3CCC4=CC(=O)CC[C@]4(C)[C@H]3CC[C@]12C [progesterone, reference compound]
- effect on uterine muscle contraction with oxytocin stimulation ([1]; increasing doses of oxytocin, 10 μM progesterone, n=3): but progesterone inhibits uterine muscle contraction
- ability to mitigate collagen retraction ([2]; progesterone at the same concentration as androstane-3,17-diol (10 μM)): no effect
- muscle contractility in myography tracings ([5]; 1 μM progesterone): no effects
- muscle contractility in myography tracings ([5]; 10 μM progesterone): first enhanced and then gradually suppressed in peak height
